Where a SMILES comes first, the peptide text is derived from it. Bridges are numbered along the chain shown (N, C = ends).
Legend:
Peregrinus maidis = experiment: Dose response insect-feeding assay for E5 against Peregrinus maidis (sucrose/parafilm membrane, mortality scored after 72 hours); format: in vivo; settings: adult insects, two replicates
Description: (§1) To test for the insecticidal activity of cyclotide E5 against the target homopteran pests, the lyophilized fractionated samples were placed in 96-well microtiter plates, resuspended in H2O and added to a 20% sucrose solution as detailed below. Parafilm was stretched to just short of its breaking point and used to seal the sucrose/sample reservoir. Adult insects were then added on top of the membrane in a second chamber such that the base of the insect enclosure was the parafilm membrane. The top of the insect chamber was then sealed with plastic wrap and punctured for air exchange. The number of insects feeding from each well was determined. The assay was scored after 72 hours and nsecticidal activity was measured based on insect mortality.
(§2) Specifically, for the dose-response assay results shown in Tables 1 and 2, lyophilized RP-HPLC-pure sample was resuspended in 300 μL H2O and added to 20% sucrose in the following volumes: 60, 45, 25, 10, and 5 μL. Two replicates per dose were prepared, including two negative controls. After 72 hours, the wells were scored for insect mortality.

Aphis glycines = experiment: Dose response insect-feeding assay for E5 against Aphis glycines (sucrose/parafilm membrane, mortality scored after 72 hours); format: in vivo; settings: adult insects, two replicates
Description: as §1, §2

CC[C@H](C)[C@@H]1NC(=O)[C@H](Cc2ccc(O)cc2)NC(=O)[C@H](C(C)C)NC(=O)[C@@H]2CSSC[C@@H]3NC(=O)[C@H](CCCCN)NC(=O)[C@@H]4CSSC[C@H](NC(=O)[C@@H]5CCCN5C(=O)[C@H]([C@@H](C)CC)NC(=O)[C@H](CCCCN)NC(=O)[C@H](CC(N)=O)NC(=O)[C@H](Cc5ccc(O)cc5)NC(=O)[C@H](CSSC[C@H](NC(=O)CNC1=O)C(=O)N[C@@H]([C@@H](C)O)C(=O)N[C@@H](CC(C)C)C(=O)N[C@@H]([C@@H](C)O)C(=O)N[C@@H](C)C(=O)N[C@@H](CC(C)C)C(=O)N[C@@H](C)C(=O)NCC(=O)N4)NC(=O)[C@H](C(C)C)NC(=O)[C@H](CCCCN)NC(=O)[C@H](CC(N)=O)NC(=O)[C@H](CCCCN)NC3=O)C(=O)NCC(=O)N[C@@H](CCC(=O)O)C(=O)N[C@@H](CO)C(=O)N2 [E5] (cyclo(AGCKCKNKVCYNKIPCGESCVYIGCTLTAL); disulfide 3-16, 5-20, 10-25 (inferred); ring closure inferred)
average percent (%) insect mortality (Peregrinus maidis; E5 concentration 2.73 μM (5 μL)): 90%
average percent (%) insect mortality (Peregrinus maidis; E5 concentration 4.09 μM (10 μL)): 90%
average percent (%) insect mortality (Peregrinus maidis; E5 concentration 9.97 μM (25 μL)): 95%
average percent (%) insect mortality (Peregrinus maidis; E5 concentration 16.61 μM (45 μL)): 100%
average percent (%) insect mortality (Peregrinus maidis; E5 concentration 33.22 μM (60 μL)): 100%
average percent (%) insect mortality (Aphis glycines; E5 concentration 6.36 μM (5 μL)): 56.5%
average percent (%) insect mortality (Aphis glycines; E5 concentration 12.73 μM (10 μL)): 80%
average percent (%) insect mortality (Aphis glycines; E5 concentration 31.81 μM (25 μL)): 75%
average percent (%) insect mortality (Aphis glycines; E5 concentration 57.26 μM (45 μL)): 95%
average percent (%) insect mortality (Aphis glycines; E5 concentration 76.35 μM (60 μL)): 100%

Source: US7442855B2, “Insecticidal plant cyclotide with activity against Homopteran insects” (E. I. du Pont De Nemours and Company, priority 2004, dated 2008)
